Source: patent US9630963B2, “Quinolone derivatives as fibroblast growth factor inhibitors” (Principia Biopharma, Inc., priority 2013, dated 2017)

Experiments:
human recombinant FGFR2 = human recombinant FGFR2 (Homo sapiens, UniProt P21802); test: FGFR family enzymatic activity assay (Caliper-based kinase assay), FGFR2; assay type: biochemical; details: FGFR2 0.1 nM, ATP 75 μM, peptide substrate 1 μM, room temperature 3 h
Source text: (§1) A Caliper-based kinase assay (Caliper Life Sciences, Hopkinton, Mass.) was used to measure inhibition of FGFR family (FGFR1, FGFR2, FGFR3, FGFR4) kinase activity of a compound of Formula (I′) or (I). […] This value is presented as the IC50.

human recombinant FGFR3 = human recombinant FGFR3 (Homo sapiens, UniProt P22607); test: FGFR family enzymatic activity assay (Caliper-based kinase assay), FGFR3; assay type: biochemical; details: FGFR3 0.9 nM, ATP 120 μM, peptide substrate 1 μM, room temperature 3 h
Source text: as §1

human recombinant FGFR4 = human recombinant FGFR4 (Homo sapiens, UniProt P22455); test: FGFR family enzymatic activity assay (Caliper-based kinase assay), FGFR4; assay type: biochemical; details: FGFR4 2 nM, ATP 250 μM, peptide substrate 1 μM, room temperature 3 h
Source text: as §1

human recombinant FGFR1 = human recombinant FGFR1 (Homo sapiens, UniProt P11362); test: FGFR family enzymatic activity assay (Caliper-based kinase assay), FGFR1; assay type: biochemical; details: FGFR1 0.5 nM, ATP 100 μM, peptide substrate 1 μM, room temperature 3 h
Source text: as §1

SNU-16 cells = test: Inhibition of FGFR2-dependent cell growth (Cell-titer Glo); assay type: cell-based; details: Homo sapiens, SNU16 cells, 72 hrs incubation, cell viability by Cell-titer Glo
Method: The cell-based effects of FGFR inhibitors were determined by measuring inhibition of FGFR-dependent cell line growth. […] Percent inhibition of cell growth was calculated as a percentage of untreated cell viability. The percent inhibition was plotted as a function of log compound concentration. The IC50 was then calculated for each compound using Prism software from GraphPad.

Chain of human recombinant FGFR3 (P22607 23-806): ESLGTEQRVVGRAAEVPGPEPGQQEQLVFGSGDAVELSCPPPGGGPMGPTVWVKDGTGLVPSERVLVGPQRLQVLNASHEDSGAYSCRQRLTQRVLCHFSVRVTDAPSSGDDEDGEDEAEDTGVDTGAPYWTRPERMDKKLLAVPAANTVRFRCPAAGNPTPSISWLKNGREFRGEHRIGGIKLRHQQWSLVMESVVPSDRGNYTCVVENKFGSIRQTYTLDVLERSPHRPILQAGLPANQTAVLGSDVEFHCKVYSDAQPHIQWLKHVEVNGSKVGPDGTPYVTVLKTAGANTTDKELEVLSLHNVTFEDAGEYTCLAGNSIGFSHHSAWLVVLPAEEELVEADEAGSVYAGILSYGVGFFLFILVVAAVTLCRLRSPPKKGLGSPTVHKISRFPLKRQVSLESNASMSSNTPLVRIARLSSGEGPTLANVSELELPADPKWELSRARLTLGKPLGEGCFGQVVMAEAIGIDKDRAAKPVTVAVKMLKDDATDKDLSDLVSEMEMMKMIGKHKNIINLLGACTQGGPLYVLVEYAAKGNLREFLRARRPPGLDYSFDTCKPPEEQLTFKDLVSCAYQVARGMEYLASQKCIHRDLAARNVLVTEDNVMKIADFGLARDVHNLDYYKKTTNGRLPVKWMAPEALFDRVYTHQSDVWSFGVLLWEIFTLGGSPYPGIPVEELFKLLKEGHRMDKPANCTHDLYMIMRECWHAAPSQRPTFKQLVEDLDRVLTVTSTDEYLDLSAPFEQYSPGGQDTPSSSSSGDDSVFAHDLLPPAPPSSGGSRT
Chain of human recombinant FGFR4 (P22455 22-802): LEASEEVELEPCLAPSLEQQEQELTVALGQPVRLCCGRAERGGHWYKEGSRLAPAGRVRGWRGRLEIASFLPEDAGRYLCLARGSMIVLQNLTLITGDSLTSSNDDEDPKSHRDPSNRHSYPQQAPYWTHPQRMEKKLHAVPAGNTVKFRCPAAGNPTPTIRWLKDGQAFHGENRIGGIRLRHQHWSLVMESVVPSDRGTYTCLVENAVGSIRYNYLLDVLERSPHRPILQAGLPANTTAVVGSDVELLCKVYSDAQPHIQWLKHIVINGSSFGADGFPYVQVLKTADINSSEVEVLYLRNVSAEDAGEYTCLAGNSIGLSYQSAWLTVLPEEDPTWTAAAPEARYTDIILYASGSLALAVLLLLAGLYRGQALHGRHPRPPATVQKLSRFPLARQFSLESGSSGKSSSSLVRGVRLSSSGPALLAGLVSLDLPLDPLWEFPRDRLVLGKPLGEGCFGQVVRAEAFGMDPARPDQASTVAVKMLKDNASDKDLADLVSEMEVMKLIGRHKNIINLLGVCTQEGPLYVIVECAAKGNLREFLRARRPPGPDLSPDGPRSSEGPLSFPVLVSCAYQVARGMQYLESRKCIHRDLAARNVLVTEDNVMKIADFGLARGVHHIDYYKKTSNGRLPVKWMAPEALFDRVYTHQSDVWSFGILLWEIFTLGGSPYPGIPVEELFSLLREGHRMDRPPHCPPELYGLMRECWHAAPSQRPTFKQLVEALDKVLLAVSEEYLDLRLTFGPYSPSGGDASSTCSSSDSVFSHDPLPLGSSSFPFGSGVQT
Chain of human recombinant FGFR2 (P21802 22-821): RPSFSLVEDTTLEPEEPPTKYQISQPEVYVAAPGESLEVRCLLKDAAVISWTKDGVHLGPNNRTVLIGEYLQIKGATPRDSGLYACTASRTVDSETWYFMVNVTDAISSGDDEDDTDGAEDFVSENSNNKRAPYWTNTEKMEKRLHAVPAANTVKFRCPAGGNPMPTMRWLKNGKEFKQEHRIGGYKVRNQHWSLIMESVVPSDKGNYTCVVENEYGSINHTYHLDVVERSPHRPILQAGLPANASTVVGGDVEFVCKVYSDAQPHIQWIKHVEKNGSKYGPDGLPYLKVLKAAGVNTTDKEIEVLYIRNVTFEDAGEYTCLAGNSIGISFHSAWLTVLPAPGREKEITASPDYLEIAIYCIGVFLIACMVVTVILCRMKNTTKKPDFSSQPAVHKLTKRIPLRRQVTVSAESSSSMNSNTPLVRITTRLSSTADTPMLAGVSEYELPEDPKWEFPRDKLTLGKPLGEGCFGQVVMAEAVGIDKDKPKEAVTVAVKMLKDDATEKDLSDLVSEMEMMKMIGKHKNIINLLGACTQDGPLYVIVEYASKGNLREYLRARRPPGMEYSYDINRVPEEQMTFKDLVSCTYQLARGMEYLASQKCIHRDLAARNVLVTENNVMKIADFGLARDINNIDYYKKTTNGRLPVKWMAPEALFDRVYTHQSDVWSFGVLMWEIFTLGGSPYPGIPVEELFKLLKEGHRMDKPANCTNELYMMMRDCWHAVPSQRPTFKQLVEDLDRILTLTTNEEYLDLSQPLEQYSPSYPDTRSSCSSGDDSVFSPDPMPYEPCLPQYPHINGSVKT
Chain of human recombinant FGFR1 (P11362 22-822): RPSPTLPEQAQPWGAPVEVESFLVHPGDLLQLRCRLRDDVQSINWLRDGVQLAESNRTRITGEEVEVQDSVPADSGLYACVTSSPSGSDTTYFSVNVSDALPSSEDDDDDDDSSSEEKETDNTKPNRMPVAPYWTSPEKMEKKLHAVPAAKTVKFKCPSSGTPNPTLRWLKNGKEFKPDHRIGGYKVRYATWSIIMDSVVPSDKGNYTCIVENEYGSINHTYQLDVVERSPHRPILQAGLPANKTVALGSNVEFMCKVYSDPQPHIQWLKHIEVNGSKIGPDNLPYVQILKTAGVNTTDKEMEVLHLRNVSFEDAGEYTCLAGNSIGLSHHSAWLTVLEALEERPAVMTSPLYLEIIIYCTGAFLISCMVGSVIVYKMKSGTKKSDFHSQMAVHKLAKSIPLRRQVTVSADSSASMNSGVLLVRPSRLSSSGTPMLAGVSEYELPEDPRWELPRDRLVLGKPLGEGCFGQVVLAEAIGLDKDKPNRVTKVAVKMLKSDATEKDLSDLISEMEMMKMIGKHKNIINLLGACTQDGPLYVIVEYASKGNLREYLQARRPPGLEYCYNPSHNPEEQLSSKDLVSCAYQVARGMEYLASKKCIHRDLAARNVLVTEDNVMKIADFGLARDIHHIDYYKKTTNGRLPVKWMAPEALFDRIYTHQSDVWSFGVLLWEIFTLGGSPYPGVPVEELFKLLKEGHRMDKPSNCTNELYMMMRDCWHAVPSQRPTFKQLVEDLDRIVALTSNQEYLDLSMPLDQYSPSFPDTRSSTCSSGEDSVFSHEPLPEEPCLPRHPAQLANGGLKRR

SMILES	IC50 (human recombinant FGFR2) [nM]	IC50 (human recombinant FGFR3) [nM]	IC50 (human recombinant FGFR4) [nM]	IC50 (human recombinant FGFR1) [nM]	IC50 (SNU-16 cells) [nM]
C=CC(=O)Nc1ccc(CCn2c(=O)c(-c3cc(OC)cc(OC)c3Cl)cc3cnc(NCCO)nc32)cc1 [Example 69, N-(4-(2-(6-(2-chloro-3,5-dimethoxyphenyl)-2-((2-hydroxyethyl)amino)-7-oxopyrido[2,3-d]pyrimidin-8(7H)-yl)ethyl)phenyl)acrylamide]	2	6	42.4		
C=CC(=O)Nc1ccc(CCn2c(=O)c(-c3cc(OC)cc(OC)c3Cl)cc3cnc(NC)nc32)cc1 [Example 13, N-(4-(2-(6-(2-chloro-3,5-dimethoxyphenyl)-2-(methylamino)-7-oxopyrido[2,3-d]pyrimidin-8(7H)-yl)ethyl)phenyl)acrylamide]	1.4	2.3	25.6		
C=CC(=O)Nc1cccc(CCn2c(=O)c(-c3cc(OC)cc(OC)c3)cc3cnc(NC)nc32)c1 [Example 8, N-(3-(2-(6-(3,5-dimethoxyphenyl)-2-(methylamino)-7-oxopyrido[2,3-d]pyrimidin-8(7H)-yl)ethyl)phenyl)acrylamide]		19		31.2	83
C=CC(=O)Nc1ccc(CCn2c(=O)c(-c3cc(OC)cc(OC)c3Cl)cc3cnc(NC(CO)CO)nc32)cc1 [Example 72, N-(4-(2-(6-(2-chloro-3,5-dimethoxyphenyl)-2-((1,3-dihydroxypropan-2-yl)amino)-7-oxopyrido[2,3-d]pyrimidin-8(7H)-yl)ethyl)phenyl)acrylamide]	1.5	6.8	43.3		
C=CC(=O)Nc1ccc(CCn2c(=O)c(-c3cc(OC)cc(OC)c3Cl)cc3cnc(NCCN4CCN(C(C)=O)CC4)nc32)cc1 [Example 66, N-(4-(2-(2-((2-(4-acetylpiperazin-1-yl)ethyl)amino)-6-(2-chloro-3,5-dimethoxy-phenyl)-7-oxopyrido[2,3-d]pyrimidin-8(7H)-yl)ethyl)phenyl)acrylamide]	2	6.3	41		
C=CC(=O)Nc1ccc(CCn2c(=O)c(-c3cc(OC)cc(OC)c3Cl)cc3cnc(NC)nc32)cn1 [Example 16, N-(5-(2-(6-(2-chloro-3,5-dimethoxyphenyl)-2-(methylamino)-7-oxopyrido[2,3-d]pyrimidin-8(7H)-yl)ethyl)pyridin-2-yl)acrylamide]	1.7	2.3	6.9		
C=CC(=O)Nc1ccc(CCn2c(=O)c(-c3c(Cl)c(OC)cc(OC)c3Cl)cc3cnc(NCC4(O)CCN(C)CC4)nc32)cc1 [Example 98, N-(4-(2-(6-(2,6-dichloro-3,5-dimethoxyphenyl)-2-(((4-hydroxy-1-methylpiperidin-4-yl)methyl)-amino)-7-oxopyrido[2,3-d]pyrimidin-8(7H)-yl)ethyl)phenyl)acrylamide]				0.3	16.4
C=CC(=O)Nc1ccc(CCn2c(=O)c(-c3c(Cl)c(OC)cc(OC)c3Cl)cc3cnc(NCCO)nc32)nc1 [Example 86, N-(6-(2-(6-(2,6-dichloro-3,5-dimethoxyphenyl)-2-((2-hydroxyethyl)amino)-7-oxopyrido[2,3-d]pyrimidin-8(7H)-yl)ethyl)pyridin-3-yl)acrylamide]				0.6	11.4
C=CC(=O)Nc1ccc(CCn2c(=O)c(-c3c(Cl)c(OC)cc(OC)c3Cl)cc3cnc(NC(C)C)nc32)nc1 [Example 80, N-(6-(2-(6-(2,6-dichloro-3,5-dimethoxyphenyl)-2-(isopropylamino)-7-oxopyrido[2,3-d]pyrimidin-8(7H)-yl)ethyl)pyridin-3-yl)acrylamide]				0.5	9.6
C=CC(=O)Nc1ccc(CCn2c(=O)c(-c3c(Cl)c(OC)cc(OC)c3Cl)cc3cnc(NCC(C)(C)CO)nc32)cc1 [Example 93, N-(4-(2-(6-(2,6-dichloro-3,5-dimethoxyphenyl)-2-((3-hydroxy-2,2-dimethylpropyl)-amino)-7-oxopyrido[2,3-d]pyrimidin-8(7H)-yl)ethyl)phenyl)acrylamide]				0.7	1.5
C=CC(=O)Nc1ccc(CCn2c(=O)c(-c3c(Cl)c(OC)cc(OC)c3Cl)cc3cnc(NC4CCOCC4)nc32)cc1 [Example 89, N-(4-(2-(6-(2,6-dichloro-3,5-dimethoxyphenyl)-7-oxo-2-((tetrahydro-2H-pyran-4-yl)amino)pyrido[2,3-d]pyrimidin-8(7H)-yl)ethyl)phenyl)acrylamide]				0.2	4.8
C=CS(=O)(=O)Nc1ccc(CCn2c(=O)c(-c3cc(OC)cc(OC)c3Cl)cc3cnc(NC)nc32)cc1 [Example 20, N-(4-(2-(6-(2-chloro-3,5-dimethoxyphenyl)-2-(methylamino)-7-oxopyrido[2,3-d]pyrimidin-8(7H)-yl)ethyl)phenyl)ethenesulfonamide]				3.4	24.3
C=CC(=O)Nc1ccc(CCn2c(=O)c(-c3cc(OC)cc(OC)c3Cl)cc3cnc(NCC(C)(C)C)nc32)cn1 [Example 30, N-(5-(2-(6-(2-chloro-3,5-dimethoxyphenyl)-2-(neopentylamino)-7-oxopyrido[2,3-d]pyrimidin-8(7H)-yl)ethyl)pyridin-2-yl)acrylamide]				5.1	5
C=CC(=O)Nc1ccc(CCn2c(=O)c(-c3cc(OC)cc(OC)c3Cl)cc3cnc(NCC(C)(C)O)nc32)cn1 [Example 28, N-(5-(2-(6-(2-chloro-3,5-dimethoxyphenyl)-2-((2-hydroxy-2-methylpropyl)amino)-7-oxopyrido[2,3-d]pyrimidin-8(7H)-yl)ethyl)pyridin-2-yl)acrylamide]				4.3	3.8
C=CC(=O)Nc1ccc(CCn2c(=O)c(-c3cc(OC)cc(OC)c3Cl)cc3cnc(NCCN4CCN(C(C)C)CC4)nc32)cc1 [Example 57, N-(4-(2-(6-(2-chloro-3,5-dimethoxyphenyl)-2-((4-isopropylpiperazin-1-yl-ethyl)amino)-7-oxopyrido[2,3-d]pyrimidin-8(7H)-yl)ethyl)phenyl)acylamide]				0.4	0.4
C=CC(=O)Nc1ccc(CCn2c(=O)c(-c3cc(OC)cc(OC)c3Cl)cc3cnc(NCCO)nc32)nc1 [Example 104, N-(6-(2-(6-(2-chloro-3,5-dimethoxyphenyl)-2-((2-hydroxyethyl)amino)-7-oxopyrido[2,3-d]pyrimidin-8(7H)-yl)ethyl)pyridin-3-yl)acrylamide]				0.8	13.4
C=CC(=O)Nc1ccc(CCn2c(=O)c(-c3cc(OC)cc(OC)c3Cl)cc3cnc(NCCCCN(CC)CC)nc32)cn1 [Example 32, N-(5-(2-(6-(2-chloro-3,5-dimethoxyphenyl)-2-((4-(diethylamino)butyl)amino)-7-oxopyrido[2,3-d]pyrimidin-8 (7H)-yl)ethyl)pyridin-2-yl)acrylamide]				1.2	6.7
C=CC(=O)Nc1nc(CCn2c(=O)c(-c3cc(OC)cc(OC)c3Cl)cc3cnc(NC)nc32)cs1 [Example 33, N-(4-(2-(6-(2-chloro-3,5-dimethoxyphenyl)-2-(methylamino)-7-oxopyrido[2,3-d]-pyrimidin-8(7H)-yl)ethyl)thiazol-2-yl)acrylamide]				4.1	32.7
C=CC(=O)Nc1ccc(CCn2c(=O)c(-c3c(Cl)c(OC)cc(OC)c3Cl)cc3cnc(NCC(C)(C)CO)nc32)nc1 [Example 97, N-(6-(2-(6-(2,6-dichloro-3,5-dimethoxyphenyl)-2-((3-hydroxy-2,2-dimethylpropyl)-amino)-7-oxopyrido[2,3-d]pyrimidin-8(7H)-yl)ethyl)pyridin-3-yl)acrylamide]				1.5	6.4
C=CC(=O)Nc1ccc(CCn2c(=O)c(-c3cc(OC)cc(OC)c3Cl)cc3cnc(NCC(C)(C)CO)nc32)cc1 [Example 83, N-(4-(2-(6-(2-chloro-3,5-dimethoxyphenyl)-2-((3-hydroxy-2,2-dimethyl-propyl)amino)-7-oxopyrido[2,3-d]pyrimidin-8(7H)-yl)ethyl)phenyl)acrylamide]				0.6	4.2
C=CC(=O)Nc1ccc(CCn2c(=O)c(-c3c(Cl)c(OC)cc(OC)c3Cl)cc3cnc(NC4CCOCC4)nc32)nc1 [Example 81, N-(6-(2-(6-(2,6-dichloro-3,5-dimethoxyphenyl)-7-oxo-2-((tetrahydro-2H-pyran-4-yl)amino)-pyrido[2,3-d]pyrimidin-8(7H)-yl)ethyl)pyridin-3-yl)acrylamide]				0.3	4.1
C=CC(=O)Nc1ccc(CCn2c(=O)c(-c3cc(OC)cc(OC)c3Cl)cc3cnc(NCCN4C[C@@H](C)O[C@@H](C)C4)nc32)cc1 [Example 58, N-(4-(2-(6-(2-chloro-3,5-dimethoxyphenyl)-2-((2-((2R,6S)-2,6-dimethyl-morpholino)ethyl)-amino)-7-oxopyrido[2,3-d]pyrimidin-8(7H)-yl)ethyl)phenyl)acrylamide]				1.3	0.8
C=CS(=O)(=O)Nc1cccc(CCn2c(=O)c(-c3cc(OC)cc(OC)c3Cl)cc3cnc(NC)nc32)c1 [Example 21, N-(3-(2-(6-(2-chloro-3,5-dimethoxyphenyl)-2-(methylamino)-7-oxopyrido[2,3-d]pyrimidin-8(7H)-yl)ethyl)phenyl)ethenesulfonamide]				6.7	115
